In PubChem BioAssay (NCI):
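All cell lines were grown in 96-well plates and treated with compound for 48 hours. The concentration for 50% growth inhibition is given as GI50. TGI: concentration producing complete growth inhibition.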

Key:
Experiment in all cases: NCI-60 cell line screen, 48 h
[1] = test system: HCC-2998 colon
[2] = test system: SF-295 CNS
[3] = test system: RXF 393 renal
[4] = test system: CCRF-CEM leukemia
[5] = test system: PC-3 prostate
[6] = test system: MALME-3M melanoma
[7] = test system: SF-539 CNS
[8] = test system: OVCAR-5 ovarian
[9] = test system: ACHN renal
[10] = test system: RPMI-8226 leukemia
[11] = test system: DU-145 prostate
[12] = test system: NCI/ADR-RES ovarian
[13] = test system: SK-MEL-28 melanoma
[14] = test system: OVCAR-8 ovarian
[15] = test system: SK-MEL-2 melanoma
[16] = test system: MDA-MB-231 breast
[17] = test system: UO-31 renal
[18] = test system: SN12C renal
[19] = test system: HOP-92 NSCLC
[20] = test system: SK-MEL-5 melanoma
[21] = test system: KM12 colon
[22] = test system: CAKI-1 renal
[23] = test system: UACC-62 melanoma
[24] = test system: BT-549 breast
[25] = test system: MDA-MB-435
[26] = test system: SNB-75 CNS
[27] = test system: HOP-62 NSCLC
[28] = test system: EKVX NSCLC
[29] = test system: TK-10 renal
[30] = test system: MOLT-4 leukemia
[31] = test system: OVCAR-4 ovarian
[32] = test system: HCT-15 colon
[33] = test system: SR leukemia
[34] = test system: K-562 leukemia
[35] = test system: A498 renal
[36] = test system: SW-620 colon
[37] = test system: HT29 colon
[38] = test system: HCT-116 colon
[39] = test system: IGROV1 ovarian
[40] = test system: UACC-257 melanoma
[41] = test system: SF-268 CNS
[42] = test system: NCI-H23 lung
[43] = test system: HS 578T breast
[44] = test system: OVCAR-3 ovarian
[45] = test system: NCI-H460 lung
[46] = test system: SNB-19 CNS
[47] = test system: MCF7 breast
[48] = test system: M14 melanoma
[49] = test system: NCI-H522 lung
[50] = test system: A549 NSCLC
[51] = test system: COLO 205 colon
[52] = test system: 786-0 renal
[53] = test system: HL-60(TB) leukemia
[54] = test system: SK-OV-3 ovarian
[55] = test system: U251 CNS
[56] = test system: T-47D breast

**Q.** Which results are given for `Cc1[nH]c(C(=O)Nc2ccc(C(=O)NCCN)cc2OC(C)C)c(Cl)c1Cl`?
**A.** GI50 [1]: 1.82 µM; TGI [1]: 3.48 µM; GI50 [2]: 1.76 µM; TGI [2]: 3.23 µM; GI50 [3]: 1.71 µM; TGI [3]: 3.36 µM; GI50 [4]: 2.13 µM; TGI [4]: 5.17 µM; GI50 [5]: 1.82 µM; TGI [5]: 3.53 µM; GI50 [6]: 1.46 µM; TGI [6]: 3.19 µM; GI50 [7]: 1.68 µM; TGI [7]: 3.14 µM; GI50 [8]: 1.67 µM; TGI [8]: 3.11 µM; GI50 [9]: 1.67 µM; TGI [9]: 3.07 µM; GI50 [10]: 1.92 µM; TGI [10]: 4.49 µM; GI50 [11]: 1.69 µM; TGI [11]: 3.14 µM; GI50 [12]: 4.32 µM; TGI [12]: 22.6 µM; GI50 [13]: 1.76 µM; TGI [13]: 3.21 µM; GI50 [14]: 2.23 µM; TGI [14]: 5.43 µM; GI50 [15]: 1.99 µM; TGI [15]: 3.76 µM; GI50 [16]: 1.69 µM; TGI [16]: 3.27 µM; GI50 [17]: 1.54 µM; TGI [17]: 2.96 µM; GI50 [18]: 1.82 µM; TGI [18]: 3.41 µM; GI50 [19]: 1.3 µM; TGI [19]: 2.87 µM; GI50 [20]: 1.78 µM; TGI [20]: 3.2 µM; GI50 [21]: 1.74 µM; TGI [21]: 3.21 µM; GI50 [22]: 1.63 µM; TGI [22]: 3.04 µM; GI50 [23]: 1.7 µM; TGI [23]: 3.08 µM; GI50 [24]: 10.6 µM; TGI [24]: 33 µM; GI50 [25]: 1.66 µM; TGI [25]: 3.08 µM; GI50 [26]: 1.55 µM; TGI [26]: 3.07 µM; GI50 [27]: 1.95 µM; TGI [27]: 4.53 µM; GI50 [28]: 1.62 µM; TGI [28]: 3.17 µM

**Q.** Which results are given for `CCCc1cn2c(/C=N/N=C(N)N)c(-c3cc([N+](=O)[O-])c(Cl)cc3Cl)nc2s1`?
**A.** TGI [4]: 0.86 µM; TGI [29]: 2.33 µM; TGI [30]: 0.873 µM; TGI [31]: 2.83 µM; TGI [8]: 3.12 µM; TGI [32]: 3.02 µM; TGI [9]: 3.16 µM; TGI [33]: 2.92 µM; TGI [34]: 2.49 µM; TGI [11]: 3.53 µM; TGI [12]: 4.31 µM; TGI [18]: 3.16 µM; TGI [23]: 3.15 µM; TGI [35]: 2.88 µM; TGI [26]: 3.07 µM; TGI [36]: 2.97 µM; TGI [37]: 2.46 µM

**Q.** Which TGI [38] does the source give for `COc1ccccc1C#C/C=C\C#Cc1ccccc1C#N` here?
**A.** The TGI was 27.7 µM.

**Q.** What about the TGI [39] of the same compound?
**A.** The TGI was 35.8 µM.

**Q.** What about the TGI [1] of the same compound?
**A.** Its TGI is 47.4 µM.

**Q.** What about the TGI [2] of the same compound?
**A.** The TGI was 47.1 µM.

**Q.** What about the TGI [3] of the same compound?
**A.** The TGI was 83.5 µM.

**Q.** What about the TGI [4] of the same compound?
**A.** The TGI was greater than 100 µM.

**Q.** And the TGI [40]?
**A.** The TGI was 94.6 µM.

**Q.** And the TGI [29]?
**A.** Its TGI is greater than 100 µM.

**Q.** And the TGI [30]?
**A.** The TGI was 38.4 µM.

**Q.** What about the TGI [41] of the same compound?
**A.** Its TGI is greater than 100 µM.

**Q.** What about the TGI [5] of the same compound?
**A.** Its TGI is greater than 100 µM.

**Q.** What about the TGI [42] of the same compound?
**A.** Its TGI is 25 µM.

**Q.** And the TGI [6]?
**A.** The TGI was 47.7 µM.

**Q.** And the TGI [31]?
**A.** The TGI was greater than 100 µM.

**Q.** What about the TGI [7] of the same compound?
**A.** Its TGI is 82.7 µM.

**Q.** What about the TGI [8] of the same compound?
**A.** Its TGI is greater than 100 µM.

**Q.** And the TGI [32]?
**A.** Its TGI is greater than 100 µM.

**Q.** And the TGI [9]?
**A.** Its TGI is greater than 100 µM.

**Q.** What about the TGI [43] of the same compound?
**A.** Its TGI is 65.4 µM.

**Q.** What about the TGI [44] of the same compound?
**A.** Its TGI is 24.5 µM.

**Q.** And the TGI [33]?
**A.** The TGI was 29.9 µM.

**Q.** What about the TGI [45] of the same compound?
**A.** The TGI was greater than 100 µM.

**Q.** What about the TGI [46] of the same compound?
**A.** The TGI was greater than 100 µM.

**Q.** And the TGI [34]?
**A.** The TGI was greater than 100 µM.

**Q.** What about the TGI [11] of the same compound?
**A.** The TGI was greater than 100 µM.

**Q.** What about the TGI [47] of the same compound?
**A.** Its TGI is 28 µM.

**Q.** And the TGI [12]?
**A.** The TGI was greater than 100 µM.

**Q.** What about the TGI [13] of the same compound?
**A.** Its TGI is greater than 100 µM.

**Q.** And the TGI [48]?
**A.** Its TGI is 46.5 µM.

**Q.** And the TGI [49]?
**A.** The TGI was 25.7 µM.

**Q.** And the TGI [50]?
**A.** The TGI was greater than 100 µM.

**Q.** What about the TGI [51] of the same compound?
**A.** Its TGI is 37.1 µM.

**Q.** What about the TGI [14] of the same compound?
**A.** Its TGI is 34.4 µM.

**Q.** What about the TGI [15] of the same compound?
**A.** The TGI was 51.8 µM.

**Q.** And the TGI [52]?
**A.** Its TGI is 81.8 µM.

**Q.** What about the TGI [17] of the same compound?
**A.** The TGI was 67.2 µM.

**Q.** And the TGI [53]?
**A.** The TGI was greater than 100 µM.

**Q.** And the TGI [18]?
**A.** Its TGI is greater than 100 µM.

**Q.** What about the TGI [19] of the same compound?
**A.** The TGI was greater than 100 µM.

**Q.** What about the TGI [20] of the same compound?
**A.** The TGI was 5.95 µM.

**Q.** What about the TGI [21] of the same compound?
**A.** Its TGI is 55.6 µM.

**Q.** And the TGI [22]?
**A.** The TGI was 61.5 µM.

**Q.** What about the TGI [23] of the same compound?
**A.** Its TGI is greater than 100 µM.

**Q.** What about the TGI [54] of the same compound?
**A.** Its TGI is greater than 100 µM.

**Q.** What about the TGI [55] of the same compound?
**A.** The TGI was greater than 100 µM.

**Q.** And the TGI [56]?
**A.** Its TGI is greater than 100 µM.

**Q.** What about the TGI [25] of the same compound?
**A.** Its TGI is 14.5 µM.

**Q.** And the TGI [26]?
**A.** Its TGI is greater than 100 µM.

**Q.** What about the TGI [27] of the same compound?
**A.** The TGI was 62.5 µM.

**Q.** What about the TGI [36] of the same compound?
**A.** Its TGI is 65.7 µM.

**Q.** What about the TGI [28] of the same compound?
**A.** The TGI was 58.7 µM.

**Q.** What about the TGI [37] of the same compound?
**A.** The TGI was greater than 100 µM.
